In patent US12384756B2, “Piperidinedione derivatives” (INNOCURE THERAPEUTICS, INC., priority 2021, dated 2025):

Experiments:
CRBN = target: T1, CRBN (Homo sapiens, UniProt Q96SW2); assay: NanoBRET intracellular E3 ligase assay, CRBN binding affinity; settings: BRET assay, compared with pomalidomide
T1 construct: host or cells: HEK 293T
Method: The binding affinity of the synthesized compounds to CRBN E3 ligase was measured using PROMEGA NANOBRET™ Intracellular E3 ligase Assay, CRBN [cat #N2910]. Bioluminescence resonance energy transfer (BRET) assay is a method that the transfer of luminescence energy of POI into a bound fluorescent tracer is measured. […] Thus, the affinity of a compound to the POI can be measure.
9.0 mg/ml of DDB1 expression vector and 1.0 mg/ml of NanoLuc-CRBN fusion vector were transfected using LIPOFECTAMINE™ 3000.
Then, the cell lines were treated with a compound prepared at various concentrations, and then mixed for 15 seconds. Then, cell walls were broken by using digitonin, and the mixture was reacted for 25 minutes. Then, the mixture was treated with luciferase substrate. The luminescence intensity and the fluorescence intensity were measure at donor emission wavelength (450 nm) and at acceptor emission wavelength (610 nm), and then BRET ratio was calculated and normalized. BRET ratio was calculated by the following formula: BRET ratio: Acceptor/Donor×1000 [4] CRBN Binding Affinity of the Compound

SHP2 = target: T2, SHP2 (Homo sapiens, UniProt Q06124); assay: SHP2 protein degradation by western blot in MV-4-11 cells; assay type: cell-based; settings: MV-4-11, 24 hours; for DC50: 50% inhibition of protein expression, read-out: DC50 of SHP2-targeted PROTAC
T2 construct: SHP2 expressed in cells; endogenous in cells; host or cells: MV-4-11
T2 sequence (Q06124 1-593): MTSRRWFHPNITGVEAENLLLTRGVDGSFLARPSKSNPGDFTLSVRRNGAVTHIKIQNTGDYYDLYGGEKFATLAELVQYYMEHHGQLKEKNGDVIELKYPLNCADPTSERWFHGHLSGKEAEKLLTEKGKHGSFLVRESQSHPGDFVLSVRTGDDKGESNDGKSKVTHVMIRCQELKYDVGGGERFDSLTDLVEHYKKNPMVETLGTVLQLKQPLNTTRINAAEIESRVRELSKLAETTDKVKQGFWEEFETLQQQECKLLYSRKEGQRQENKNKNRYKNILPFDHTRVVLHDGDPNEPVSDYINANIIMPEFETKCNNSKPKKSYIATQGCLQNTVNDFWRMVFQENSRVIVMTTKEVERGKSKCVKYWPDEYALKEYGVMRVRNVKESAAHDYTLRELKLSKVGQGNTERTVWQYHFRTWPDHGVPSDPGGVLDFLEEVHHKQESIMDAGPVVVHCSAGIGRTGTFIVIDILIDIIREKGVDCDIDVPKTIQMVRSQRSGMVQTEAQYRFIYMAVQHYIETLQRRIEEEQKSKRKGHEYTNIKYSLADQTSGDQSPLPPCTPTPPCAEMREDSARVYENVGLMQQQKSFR
Method: (§1) Human hematologic cancer cell line [MV-4-11] was cultured in IMDM medium with 10% fetal bovine serum, penicillin [100 U/ml] and streptomycin [[…]]. The synthesized compound was prepared with a stock solution of 10 mM or 50 mM dissolved in DMSO [dimethyl sulfoxide], and it was sequentially diluted to treat the cell line.
To observe the PROTAC's degradation ability to SHP2 expressed in cells, the cells were aliquoted into a 12 well plate at a concentrations of 3×10^5 cells/well, and then the sample was treated for 24 hours. In order to conduct western blotting assay to confirm protein expression, the cell treated with the compound was treated for 30 minutes with 70 μL of RIPA buffer with wherein protease inhibitor is added. Then, cell lysate was collected on ice using a scraper and centrifuged at 4° C. 15,000 rpm for 30 minutes to obtain a supernatant containing protein. Then, SDS-PAGE is conducted for 10 μg of protein per sample, and the protein is transferred to a membrane. The protein is reacted with antibodies of anti-SHP2 and anti-GAPDH at 4° C. for 16 hours, and then, reacted with the secondary antibodies at room temperature for 1 hour. The protein expression is confirmed using SuperSignal™ West Pico PLUS chemiluminescence substrate and image analyzer. The protein expression inhibition was normalized based on the expression value of GAPDH. The amount of protein expression in each sample was measured based on the sample treated with 0.1% DMSO vehicle which was set to 100%. The amount of protein expression was quantified using the Image J program. The change in the amount of protein expression due to the treatment of compound (DC50: the concentration of compounds where the 50% inhibition of protein expression is achieved) was calculated using GraphicPad Prism 8.0 software.

[1] = system: Human hematologic cancer cell line [MV-4-11]; assay: Anti-proliferative activity (WST-8) of SHP2 targeted PROTAC in MV-4-11; assay type: cell-based; settings: MV-4-11, 72 hours; for IC50: Homo sapiens, MV4-11, WST-8, read-out: IC50 of SHP2-targeted PROTAC (cell proliferation)
Method: as §1
The cell survival was calculated by steps of adding in each well […] of water soluble tetrazolium salt (WST-8) which produces formazon in response to dehydrogenase present in the electron transport chain in mitochondria, incubating for 3 hours, measuring the absorbance at 450 nm, and calculating […] PRISM 8.0 software.

T1 sequence (Q96SW2 whole entry): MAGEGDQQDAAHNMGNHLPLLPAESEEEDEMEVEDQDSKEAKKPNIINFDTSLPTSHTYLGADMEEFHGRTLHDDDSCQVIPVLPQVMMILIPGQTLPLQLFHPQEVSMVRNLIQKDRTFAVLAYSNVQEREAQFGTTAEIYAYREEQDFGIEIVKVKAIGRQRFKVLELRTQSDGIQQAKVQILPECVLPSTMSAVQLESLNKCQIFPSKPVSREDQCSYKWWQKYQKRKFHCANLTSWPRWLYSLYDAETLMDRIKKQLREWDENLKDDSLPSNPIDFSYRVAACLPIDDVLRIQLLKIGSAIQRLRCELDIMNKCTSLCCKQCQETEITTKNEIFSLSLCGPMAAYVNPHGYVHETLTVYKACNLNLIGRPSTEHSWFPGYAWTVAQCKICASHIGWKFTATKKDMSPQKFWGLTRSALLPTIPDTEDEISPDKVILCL
T1 sequence (Q16531 whole entry partner): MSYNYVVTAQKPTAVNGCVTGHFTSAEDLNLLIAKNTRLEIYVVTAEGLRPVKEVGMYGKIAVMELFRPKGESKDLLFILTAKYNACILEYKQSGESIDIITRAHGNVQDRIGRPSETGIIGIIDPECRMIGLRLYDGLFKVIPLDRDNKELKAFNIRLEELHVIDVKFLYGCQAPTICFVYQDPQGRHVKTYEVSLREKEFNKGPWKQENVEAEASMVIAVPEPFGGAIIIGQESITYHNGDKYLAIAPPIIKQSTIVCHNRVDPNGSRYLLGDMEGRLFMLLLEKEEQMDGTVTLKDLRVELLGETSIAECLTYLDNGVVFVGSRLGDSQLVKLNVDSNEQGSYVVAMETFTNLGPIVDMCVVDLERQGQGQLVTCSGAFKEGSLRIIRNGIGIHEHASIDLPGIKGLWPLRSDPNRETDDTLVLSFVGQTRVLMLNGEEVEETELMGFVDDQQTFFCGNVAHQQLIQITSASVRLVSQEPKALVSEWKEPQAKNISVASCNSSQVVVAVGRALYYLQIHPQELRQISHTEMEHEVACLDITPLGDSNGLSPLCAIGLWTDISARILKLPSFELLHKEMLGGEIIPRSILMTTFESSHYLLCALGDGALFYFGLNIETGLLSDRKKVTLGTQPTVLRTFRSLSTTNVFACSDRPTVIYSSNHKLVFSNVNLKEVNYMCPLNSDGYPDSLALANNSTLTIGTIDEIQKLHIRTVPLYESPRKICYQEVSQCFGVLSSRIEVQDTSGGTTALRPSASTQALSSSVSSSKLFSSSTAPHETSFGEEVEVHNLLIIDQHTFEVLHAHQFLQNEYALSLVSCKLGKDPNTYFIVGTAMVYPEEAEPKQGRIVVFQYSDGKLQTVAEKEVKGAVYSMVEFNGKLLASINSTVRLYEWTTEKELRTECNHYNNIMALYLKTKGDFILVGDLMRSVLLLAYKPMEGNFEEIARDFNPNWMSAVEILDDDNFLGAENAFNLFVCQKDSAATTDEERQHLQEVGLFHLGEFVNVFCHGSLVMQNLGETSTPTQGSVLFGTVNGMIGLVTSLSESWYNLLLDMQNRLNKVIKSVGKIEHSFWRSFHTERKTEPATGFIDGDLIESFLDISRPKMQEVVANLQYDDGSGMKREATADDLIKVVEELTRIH

With Cc1nn(C2CCC(=O)NC2=O)c(=O)c2c(N)cccc12 (stereo not shown) [Ex. 8, 3-(8-amino-4-methyl-1-oxophthalazin-2(1H)-yl)piperidine-2,6-dione] the “CRBN binding affinity (in words)” value (CRBN) was “excellent”.

In the case of C[C@@H]1OCC2(CCN(c3cnc(Sc4cccc(NC(=O)CCC(=O)N5CCN(C(=O)CCOCCOCCOCCOCCNc6cccc7cnn(C8CCC(=O)NC8=O)c(=O)c67)CC5)c4Cl)c(N)n3)CC2)[C@@H]1N (stereo partly drawn) [Example 77, N-(3-((3-amino-5-((3S,4S)-4-amino-3-methyl-2-oxa-8-azaspiro[4.5]decan-8-yl)pyrazin-2-yl)thio)-2-chlorophenyl)-4-(4-(1-((3-(2,6-dioxopiperidin-3-yl)-4-oxo-3,4-dihydrophthalazin-5-yl)amino)-3,6,9,12-tetraoxapentadecan-15-oyl)piperazin-1-yl)-4-oxobutanamide], the “SHP2 degradation (in words)” value (SHP2) is reported as “effectively degraded”, the DC50 (SHP2) is reported as 70.2 nM and the IC50 [1] is reported as 685 nM. The “inhibition of cancer cell proliferation (in words)” value (“inhibition” for short) [1] was “inhibited effectively”.

For C[C@@H]1OCC2(CCN(c3cnc(Sc4cccc(NC(=O)CCC(=O)N5CCN(C(=O)CCOCCOCCOCCOCCOCCOCCNc6cccc7cnn(C8CCC(=O)NC8=O)c(=O)c67)CC5)c4Cl)c(N)n3)CC2)[C@@H]1N (stereo partly drawn) [Example 79, N-(3-((3-amino-5-((3S,4S)-4-amino-3-methyl-2-oxa-8-azaspiro[4.5]decan-8-yl)pyrazin-2-yl)thio)-2-chlorophenyl)-4-(4-(1-((3-(2,6-dioxopiperidin-3-yl)-4-oxo-3,4-dihydrophthalazin-5-yl)amino)-3,6,9,12,15,18-hexaoxahenicosane-21-oyl)piperazin-1-yl)-4-oxobutanamide], the “SHP2 degradation (in words)” value (SHP2) was “effectively degraded”, the DC50 (SHP2) was 23.6 nM and the IC50 [1] was 337 nM. The “inhibition” value [1] was “inhibited effectively”.

With C[C@@H]1OCC2(CCN(c3cnc(Sc4cccc(NC(=O)CCC(=O)N5CCN(C(=O)CCOCCOCCOCCOCCOCCNc6cccc7cnn(C8CCC(=O)NC8=O)c(=O)c67)CC5)c4Cl)c(N)n3)CC2)[C@@H]1N (stereo partly drawn) [Example 78, N-(3-((3-amino-5-((3S,4S)-4-amino-3-methyl-2-oxa-8-azaspiro[4.5]decan-8-yl)pyrazin-2-yl)thio)-2-chlorophenyl)-4-(4-(1-((3-(2,6-dioxopiperidin-3-yl)-4-oxo-3,4-dihydrophthalazin-5-yl)amino)-3,6,9,12,15-pentaoxaoctadecan-18-oyl)piperazin-1-yl)-4-oxobutanamide] the “SHP2 degradation (in words)” value (SHP2) was “effectively degraded”, the DC50 (SHP2) was 24.1 nM and the IC50 [1] was 422 nM. For the same compound, the “inhibition” value [1] was “inhibited effectively”.

C[C@@H]1OCC2(CCN(c3cnc(Sc4cccc(NC(=O)CCC(=O)NCCCOCCOCCOCCCNc5ccc6c(=O)n(C7CCC(=O)NC7=O)ncc6c5)c4Cl)c(N)n3)CC2)[C@@H]1N (stereo partly drawn) [Example 73, N1-(3-((3-amino-5-((3S,4S)-4-amino-3-methyl-2-oxa-8-azaspiro[4.5]decan-8-yl)pyrazin-2-yl)thio)-2-chlorophenyl)-N4-(3-(2-(2-(3-((2-(2,6-dioxopiperidin-3-yl)-1-oxo-1,2-dihydrophthalazin-6-yl)amino)propoxy)ethoxy)ethoxy)propyl)succinamide] was tested, and the “SHP2 degradation (in words)” value (SHP2) was “effectively degraded”, the DC50 (SHP2) was 29.9 nM and the IC50 [1] was 507 nM. For the same compound, the “inhibition” value [1] was “inhibited effectively”.

For COc1cccc2cnn(C3CCC(=O)NC3=O)c(=O)c12 (stereo not shown) [Ex. 11, 3-(8-methoxy-1-oxophthalazin-2(1H)-yl)piperidine-2,6-dione], the “CRBN binding affinity (in words)” value (CRBN) was “excellent”.

For Cc1nn(C2CCC(=O)NC2=O)c(=O)c2c(F)cccc12 (stereo not shown) [Ex. 7, 3-(8-fluoro-4-methyl-1-oxophthalazin-2(1H)-yl)piperidine-2,6-dione], the “CRBN binding affinity (in words)” value (CRBN) was “excellent”.
